In patent US7666874B2, “Pyrimidylaminobenzamide derivatives for hypereosinophilic syndrome” (Novartis AG, priority 2005, dated 2010):

Assays:
Ba/F3 Tel-PDGFRβ cells = molecular target: T1, Ba/F3 Tel-PDGFRβ cells (Homo sapiens, UniProt P09619); assay: IL-3 independence cell proliferation assay (ATPLite), Ba/F3 Tel-PDGFRβ; type: cell-based
T1 construct: TEL-PDGFRβ, TEL-PDGFRβ T681I, and TEL-FGFR3 [T/F] are cloned in MSCV-neomycin [MSCV-neo]; fused on or other part: P41212 (Transcription factor ETV6)
Description: (§6) TEL-PDGFRβ [T/P], FIP1L1-PDGFRα [F/P], and FIP1L1-PDGFRα T6741 cloned in MSCV-IRES-GFP [MSCV-GFP], and TEL-PDGFRβ, TEL-PDGFRβ T681I, and TEL-FGFR3 [T/F] are cloned in MSCV-neomycin [MSCV-neo].
(§7) Ba/F3 cells are cultured in RPMI 1640 (RPMI)+10% FBS+1 ng/mL mouse interleukin (IL)-3. Retroviral supernatants are generated and used to transduce Ba/F3 cells. T/P MSCV-neo and T/F MSCV-neo cell lines are selected with 1 mg/mL G418 in the presence of IL-3 for 8-10 days. F/P MSCV-GFP cell lines are selected in RPMI lacking IL-3 for 7-10 days. […] Transformed Ba/F3 cells are grown in RPMI lacking IL-3.
(§8) The effects of compounds on viability and proliferation of the cells were determined using the luminescent ATP Detection assay kit ATPLite™ from Perkin Elmer Life Sciences (Cat. No: 6016947) according to the instructions of the suppliers. This assay system is based on the production of light (luminescence) caused by the reaction of ATP with added luciferase and D-luciferin. […]
(§9) The effect of the compound was expressed as percent reduction of the control signal. The TGI50 values were determined from the dose response curves by graphical extrapolation.

[1] = molecular target: T2, Ba/F3 cells transformed by TEL-PDGFRβ T681I mutant (Homo sapiens, UniProt P09619, T681I); assay: Proliferation of Ba/F3 cells transformed by TEL-PDGFRβ T681I mutant; type: cell-based; details: Ba/F3 cells transformed with TEL-PDGFRβ T681I mutant
T2 construct: TEL (ETV6) portion (fusion partner); expressed in transfected cells; host or cells: Ba/F3 cells (retroviral transduction, MSCV-neo); the other entry of the earlier key: ETV6 (P41212, Transcription factor ETV6)
Description: as §6, §7, §8, §9

TEL-PDGFRβ [2] = assay: Western blot of TEL-PDGFRβ phosphorylation and signaling intermediates in Ba/F3 cells; type: cell-based
Description: For T/P: Ba/F3 cells stably expressing T/P or T/F are treated with serum starvation in plain RPMI 1640 for 4 hours prior to lysis. The cell extracts are clarified by centrifugation and used for immunoprecipitation or immunoblotting. The enzyme-linked immunoblotting procedures are performed as described. Applied antibodies include: rabbit anti-PDGFRβ serum (Pharmingen); rabbit anti-PI3K (p85) serum; mouse anti-phosphotyrosine 4G10 (Upstate Biotechnology); antibodies against FGFR3, phospho-PI3K p85 (Tyr-508) (Santa Cruz Biotechnology); PLCγ, phospho-PLCγ (Tyr-783) (Cell Signaling).

TEL-PDGFRβ [3] = assay: Murine bone marrow transplant model of TEL-PDGFRβ-induced myeloproliferative disease; type: in vivo, mouse (Balb/C); details: TEL-PDGFRβ transplanted mice
Description: (§1) Murine bone marrow transplant experiments are performed as previously described. MSCV-GFP retroviral supernatants are titered by transducing Ba/F3 cells with supernatant (plus polybrene, 10 μg/mL) and analyzing for the percentage of GFP+ cells by flow cytometry at 48 h post-transduction. Balb/C donor mice (Taconic) are treated for 5-6 days with 5-fluorouracil (150 mg/kg, intraperitoneal injection). Bone marrow cells from donor mice are harvested, treated with red blood cell lysis buffer, and cultured 24 h in transplant medium (RPMI+10% FBS+6 ng/mL IL-3, 10 ng/mL IL-6, and 10 ng/mL stem cell factor). Cells are treated by spin infection with retroviral supernatants (1 mL supernatant per 4×10^6 cells, plus polybrene) and centrifuged at 2500 rpm for 90 min. 24 h later, the spin infection is repeated, then cells are washed, resuspended in Hank's balanced salt solution, and injected into lateral tail veins of lethally irradiated (2×450 rad) Balb/C recipient mice (Taconic) at 0.5-1×10^6 cells/mouse. […] Animals are sacrificed when they had palpable splenomegaly or were moribund, or, if healthy, 7 days after sacrifice of the last animal in the placebo group.
(§2) Peripheral blood is collected from the retroorbital cavity using heparinized glass capillary tubes and analyzed by automated complete and differential blood cell counts and smears (stained with Wright and Giemsa). Single cell suspensions of spleen and bone marrow are prepared by pressing tissue through a cell strainer, followed by red blood cell lysis. Cells are frozen in 90% FBS, 10% DMSO.
(§3) For histopathology, tissues are fixed for at least 72 h in 10% neutral buffered formalin, dehydrated in alcohol, cleared in xylene, and infiltrated with paraffin on an automated processor (Leica). The tissue sections (4 μm) from paraffin-embedded tissue blocks are placed on charged slides and deparaffinized in xylene, rehydrated through graded alcohol solutions, and stained with hematoxylin and eosin.
(§4) For flow cytometry, cells are washed in PBS+1% bovine serum albumin (BSA), blocked with Fc-Block (BD Pharmingen) for 10 min on ice, and stained with monoclonal antibodies in PBS+1% BSA for 20 min on ice. Antibodies used are: allophycocyanin (APC)-conjugated Gr1, CD19, and TCRB; and phycoethrin (PE)-conjugated Mac-1, B220, and CD3 (BD Pharmingen). Flow cytometric analysis is performed on a FACSCalibur instrument and analyzed with CellQuest software. Viability is assessed by incubating cells with 7AAD (BD Pharmingen) for 5 min prior to flow cytometry. Cells are gated for viability (using forward/side scatter and 7AAD) and GFP positivity, and 10,000 events are analyzed from this subset for marker expression.
Statistical significance of differences between Compound (II)- and placebo-treated groups in survival time, white blood cell counts, and spleen weights are assessed using a two-sided Mann-Whitney U-test (Wilcoxon rank sum test).
A murine bone marrow transplant protocol is used to model myeloproliferative disease caused by TEL-PDGFRβ and FIP1L1-PDGFRα. Retroviral transduction of these fusion kinases into bone marrow cells of 5FU-treated donor mice, followed by transplantation into lethally irradiated recipients, produces a rapidly fatal myeloproliferative phenotype characterized by leukocytosis with myeloid predominance, splenomegaly, and extramedullary hematopoiesis.
(§5) Donor bone marrow cells are transduced with a murine retroviral vector expressing TEL-PDGFRβ or FIP1L1-PDGFRα and transplanted into recipients.

FIP1L1-PDGFRα = molecular target: T3, FIP1L1-PDGFRα (Homo sapiens, UniProt P16234); assay: Murine bone marrow transplant model of FIP1L1-PDGFRα-induced myeloproliferative disease; type: in vivo, mouse (Balb/C); details: FIP1L1-PDGFRα transplanted mice
T3 construct: FIP1L1 portion (fusion partner); expressed in transfected cells; host or cells: Balb/C mouse donor bone marrow cells (retroviral transduction, MSCV-GFP), transplanted into Balb/C recipients; the other entry of the earlier key: FIP1L1 (Q6UN15, Pre-mRNA 3'-end-processing factor FIP1)
Description: as §1, §2, §3, §4
A murine bone marrow transplant protocol is used to model myeloproliferative disease caused by TEL-PDGFRβ and FIP1L1-PDGFRα.
as §5

[4] = daily oral gavage 150 mg/kg/day from day 11
[5] = daily oral gavage 150 mg/kg/day from day 11 after transplant

T3 sequence (P16234 593-1089 limits assumed): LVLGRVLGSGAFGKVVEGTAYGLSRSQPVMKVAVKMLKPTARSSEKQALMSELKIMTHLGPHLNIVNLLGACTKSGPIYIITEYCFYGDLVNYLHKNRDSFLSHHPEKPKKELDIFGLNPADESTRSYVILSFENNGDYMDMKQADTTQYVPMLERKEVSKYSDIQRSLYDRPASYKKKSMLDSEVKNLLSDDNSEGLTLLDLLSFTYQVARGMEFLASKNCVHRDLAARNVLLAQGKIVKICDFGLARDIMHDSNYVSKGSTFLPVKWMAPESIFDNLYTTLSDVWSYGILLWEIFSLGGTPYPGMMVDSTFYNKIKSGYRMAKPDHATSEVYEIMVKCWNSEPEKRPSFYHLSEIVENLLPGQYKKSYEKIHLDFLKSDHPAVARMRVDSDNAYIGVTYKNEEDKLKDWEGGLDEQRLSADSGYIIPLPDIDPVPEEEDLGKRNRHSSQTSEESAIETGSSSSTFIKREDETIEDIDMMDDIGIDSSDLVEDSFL
T1 sequence (P09619 whole entry, stated change not applied, the tested form may be a part): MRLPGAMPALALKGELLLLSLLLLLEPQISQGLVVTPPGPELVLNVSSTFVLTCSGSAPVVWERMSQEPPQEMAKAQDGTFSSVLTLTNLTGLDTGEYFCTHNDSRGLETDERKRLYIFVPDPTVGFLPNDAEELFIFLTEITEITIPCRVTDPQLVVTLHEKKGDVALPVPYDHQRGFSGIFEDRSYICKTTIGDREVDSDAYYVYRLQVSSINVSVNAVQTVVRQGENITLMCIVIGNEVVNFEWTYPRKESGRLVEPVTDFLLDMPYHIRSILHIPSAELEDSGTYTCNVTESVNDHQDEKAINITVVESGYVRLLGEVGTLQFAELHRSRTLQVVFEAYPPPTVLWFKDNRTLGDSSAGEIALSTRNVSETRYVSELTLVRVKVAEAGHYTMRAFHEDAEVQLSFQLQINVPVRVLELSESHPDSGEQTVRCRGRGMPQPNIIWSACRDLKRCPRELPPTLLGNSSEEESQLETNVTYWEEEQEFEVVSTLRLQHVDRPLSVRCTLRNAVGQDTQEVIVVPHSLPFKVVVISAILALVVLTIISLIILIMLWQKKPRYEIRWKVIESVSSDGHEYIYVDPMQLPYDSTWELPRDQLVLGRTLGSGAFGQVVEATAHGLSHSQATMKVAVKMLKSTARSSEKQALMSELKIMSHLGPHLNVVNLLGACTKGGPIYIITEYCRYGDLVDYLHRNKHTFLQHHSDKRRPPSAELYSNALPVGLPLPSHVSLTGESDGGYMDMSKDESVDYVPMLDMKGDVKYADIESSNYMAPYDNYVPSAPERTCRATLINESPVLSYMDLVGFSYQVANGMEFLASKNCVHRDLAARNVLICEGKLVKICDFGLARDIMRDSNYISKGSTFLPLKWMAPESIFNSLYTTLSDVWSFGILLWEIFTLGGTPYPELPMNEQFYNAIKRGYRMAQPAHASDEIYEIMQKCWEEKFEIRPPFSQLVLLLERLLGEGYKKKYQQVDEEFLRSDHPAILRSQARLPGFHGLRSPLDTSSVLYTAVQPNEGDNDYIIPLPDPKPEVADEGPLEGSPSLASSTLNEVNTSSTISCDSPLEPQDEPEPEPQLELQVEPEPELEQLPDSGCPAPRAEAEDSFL
T2 sequence (P09619 554-1106 T681I limits assumed): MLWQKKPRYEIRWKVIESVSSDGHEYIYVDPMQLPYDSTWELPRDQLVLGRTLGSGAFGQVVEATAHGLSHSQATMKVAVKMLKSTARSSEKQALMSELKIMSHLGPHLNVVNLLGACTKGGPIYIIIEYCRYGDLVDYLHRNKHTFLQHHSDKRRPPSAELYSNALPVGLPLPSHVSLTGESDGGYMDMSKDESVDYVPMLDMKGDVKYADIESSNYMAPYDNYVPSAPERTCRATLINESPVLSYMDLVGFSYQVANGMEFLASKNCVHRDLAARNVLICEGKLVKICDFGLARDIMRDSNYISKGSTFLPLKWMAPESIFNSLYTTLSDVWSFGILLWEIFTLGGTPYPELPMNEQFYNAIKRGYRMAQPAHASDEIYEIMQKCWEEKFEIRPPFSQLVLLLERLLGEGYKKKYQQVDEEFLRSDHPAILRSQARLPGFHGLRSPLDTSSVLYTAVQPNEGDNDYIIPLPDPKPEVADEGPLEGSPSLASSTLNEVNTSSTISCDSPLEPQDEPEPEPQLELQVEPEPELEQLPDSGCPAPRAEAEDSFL

Question: For `Cc1cn(-c2cc(NC(=O)c3ccc(C)c(Nc4nccc(-c5cccnc5)n4)c3)cc(C(F)(F)F)c2)cn1` [Compound (II), 4-methyl-3-[[4-(3-pyridinyl)-2-pyrimidinyl]amino]-N-[5-(4-methyl-1H-imidazol-1-yl)-3-(trifluoromethyl)phenyl] benzamide], which GI50 (Ba/F3 Tel-PDGFRβ cells; Ba/F3 Tel-PDGFRβ cells, 70 h incubation, read-out: IC50, inhibition of proliferation) is on record?
Answer: < 100 nM

Question: What about the “Inhibition of transformed Ba/F3 cells” value (Ba/F3 Tel-PDGFRβ cells; Ba/F3 cells transformed with TEL-PDGFRβ) of the same molecule?
Answer: inhibited

Question: And the “Inhibition of transformed Ba/F3 cells” value [1]?
Answer: inhibited

Question: And the “Phosphorylation of PDGFRβ signaling intermediates including PLCγ and PI3K” value (TEL-PDGFRβ [2])?
Answer: effectively inhibited

Question: What about the “TEL-PDGFRβ tyrosine autophosphorylation” value (TEL-PDGFRβ [2]) of the same molecule?
Answer: effectively inhibited

Question: And the “FACS analysis of spleen, B220+/CD19+ cells” value (TEL-PDGFRβ [3]; compared to placebo)?
Answer: slightly increased percentage

Question: And the “FACS analysis of spleen, Gr1+/Mac1+ cells” value (TEL-PDGFRβ [3]; compared to placebo)?
Answer: consistently reduced percentage

Question: What about the “Histopathology of hematopoietic organs” value (TEL-PDGFRβ [3]; compared to placebo) of the same molecule?
Answer: significantly less severe myeloproliferative disease

Question: And the “Liver weight, Mean” value (TEL-PDGFRβ [3]; [4])?
Answer: 1492.5 mg

Question: And the “Liver weight, Median” value (TEL-PDGFRβ [3]; [4])?
Answer: 1535 mg

Question: And the “Liver weight, Range” value (TEL-PDGFRβ [3]; [4])?
Answer: 1320 to 1590 mg

Question: What about the “Spleen weight, Mean” value (TEL-PDGFRβ [3]; [4]) of the same molecule?
Answer: 350.0 mg

Question: And the “Spleen weight, Median” value (TEL-PDGFRβ [3]; [4])?
Answer: 340 mg

Question: What about the “Spleen weight, Range” value (TEL-PDGFRβ [3]; [4]) of the same molecule?
Answer: 250 to 470 mg

Question: What about the “WBC, Median” value (TEL-PDGFRβ [3]; [4]) of the same molecule?
Answer: 1.59e+07 mL⁻¹

Question: What about the “WBC, Range” value (TEL-PDGFRβ [3]; [4]) of the same molecule?
Answer: 10.9-33.5 ×10^6/mL

Question: And the “WBC, Mean” value (TEL-PDGFRβ [3]; [5])?
Answer: 1.86e+07 mL⁻¹

Question: What about the Survival (TEL-PDGFRβ [3]; placebo median latency 17 days, p<0.001) of the same molecule?
Answer: 26 days

Question: What about the “Total white blood cells (WBC)” value (TEL-PDGFRβ [3]; vs 563.7 for placebo, p<0.05) of the same molecule?
Answer: 18.6 ×10^6 cells/mL

Question: And the “Extramedullary hematopoiesis in liver” value (FIP1L1-PDGFRα; compared to placebo)?
Answer: notable absence of any extramedullary hematopoiesis

Question: What about the “Histopathology of spleen” value (FIP1L1-PDGFRα; compared to placebo) of the same molecule?
Answer: striking preservation of normal splenic architecture

Question: What about the “Liver weight, Mean” value (FIP1L1-PDGFRα; [4]) of the same molecule?
Answer: 1128.0 mg

Question: What about the “Liver weight, Median” value (FIP1L1-PDGFRα; [4]) of the same molecule?
Answer: 1090 mg

Question: What about the “Liver weight, Range” value (FIP1L1-PDGFRα; [4]) of the same molecule?
Answer: 1080 to 1290 mg

Question: What about the “Spleen weight, Mean” value (FIP1L1-PDGFRα; [4]) of the same molecule?
Answer: 88.0 mg

Question: And the “Spleen weight, Median” value (FIP1L1-PDGFRα; [4])?
Answer: 100 mg

Question: And the “Spleen weight, Range” value (FIP1L1-PDGFRα; [4])?
Answer: 50 to 100 mg

Question: What about the “WBC, Median” value (FIP1L1-PDGFRα; [4]) of the same molecule?
Answer: 4.7e+06 mL⁻¹

Question: What about the “WBC, Range” value (FIP1L1-PDGFRα; [4]) of the same molecule?
Answer: 4.0-9.6 ×10^6/mL

Question: What about the “WBC, Mean” value (FIP1L1-PDGFRα; [5]) of the same molecule?
Answer: 5.6e+06 mL⁻¹

Question: What about the “Survival: all treated animals alive and healthy until study termination” value (FIP1L1-PDGFRα; all placebo animals lost by day 24) of the same molecule?
Answer: ≥ 33 days

Question: What about the “Total WBC” value (FIP1L1-PDGFRα; vs 569.7 for placebo, p<0.01) of the same molecule?
Answer: 5.6 ×10^6 cells/mL
